In test [1] the test system is Staphylococcus epidermidis. The test is described as follows: Antibacterial activity Staphylococcus epidermidis NBRC 12993 assessed as inhibition of bacterial growth after 48 hrs by two fold dilution method. Type of test: functional.
For test [2], the system named is Bacillus subtilis. The test is described as follows: Antibacterial activity Bacillus subtilis NBRC 3757 assessed as inhibition of bacterial growth after 48 hrs by two fold dilution method. Type of test: functional.
Another test deals with Micrococcus luteus. The test is described as follows: Antibacterial activity Micrococcus luteus NBRC 333 assessed as inhibition of bacterial growth after 48 hrs by two fold dilution method. The format is functional.
Test [3] deals with Staphylococcus aureus. The test is described as follows: Antibacterial activity methicillin-sensitive Staphylococcus aureus ATCC 25923 assessed as inhibition of bacterial growth after 24 hrs by NCCLS protocol based microdilution method. The format is functional.
The test system of test [4] is Staphylococcus aureus. The test is described as follows: Antibacterial activity methicillin-resistant Staphylococcus aureus ATCC 44330 assessed as inhibition of bacterial growth after 24 hrs by NCCLS protocol based microdilution method. Type of test: functional.
Test [5] relates to Staphylococcus aureus. The test is described as follows: Antibacterial activity methicillin-resistant Staphylococcus aureus USA300 assessed as inhibition of bacterial growth by CLSI based microbroth dilution assay. The format is functional. (Dilution methods test growth across graded concentrations, often in twofold steps.)
For test [6], the system named is Staphylococcus aureus. The test is described as follows: Antibacterial activity methicillin-sensitive Staphylococcus aureus ATCC 29213 assessed as inhibition of bacterial growth by CLSI based microbroth dilution assay. Type of test: functional.
The test system of another test is Bacillus anthracis. The test is described as follows: Antibacterial activity Bacillus anthracis Sterne 34F2 assessed as inhibition of bacterial growth by CLSI based microbroth dilution assay. The format is functional.
Test [7] concerns Staphylococcus aureus. The test is described as follows: Antibacterial activity methicillin-resistant Staphylococcus aureus MRSA ST-5457 assessed as inhibition of bacterial growth incubated for 16 to 24 hrs by broth microdilution assay. Type of test: functional. To be noted: time 16-24 hrs.
Test [8] concerns Staphylococcus aureus. The test is described as follows: Antibacterial activity methicillin-resistant Staphylococcus aureus MRSA B-10732 assessed as inhibition of bacterial growth incubated for 16 to 24 hrs by broth microdilution assay. Type of test: functional. To be noted: time 16-24 hrs.
The test system of test [9] is Staphylococcus aureus. The test is described as follows: Antibacterial activity methicillin-resistant Staphylococcus aureus MRSA P-6642 assessed as inhibition of bacterial growth incubated for 16 to 24 hrs by broth microdilution assay. To be noted: time 16-24 hrs. Type of test: functional.
For test [10], the system named is Staphylococcus aureus. The test is described as follows: Antibacterial activity methicillin-resistant Staphylococcus aureus MRSA P-8029 assessed as inhibition of bacterial growth incubated for 16 to 24 hrs by broth microdilution assay. Type of test: functional. The note with it: time 16-24 hrs.
Test [11] has as its system Staphylococcus aureus. The test is described as follows: Antibacterial activity methicillin-resistant Staphylococcus aureus MRSA ST-10342 assessed as inhibition of bacterial growth incubated for 16 to 24 hrs by broth microdilution assay. The format is functional. The note with it: time 16-24 hrs.
Test [12] has as its system Staphylococcus aureus. The test is described as follows: Antibacterial activity methicillin-resistant Staphylococcus aureus MRSA ST-2438 assessed as inhibition of bacterial growth incubated for 16 to 24 hrs by broth microdilution assay. The format is functional. The note with it: time 16-24 hrs.
Test [13] relates to Staphylococcus aureus. The test is described as follows: Antibacterial activity methicillin-resistant Staphylococcus aureus MRSA B-10760 assessed as inhibition of bacterial growth incubated for 16 to 24 hrs by broth microdilution assay. Type of test: functional. To be noted: time 16-24 hrs.
Test [14] relates to Staphylococcus aureus. The test is described as follows: Antibacterial activity methicillin-resistant Staphylococcus aureus MRSA ST-2071 assessed as inhibition of bacterial growth incubated for 16 to 24 hrs by broth microdilution assay. The format is functional. The note with it: time 16-24 hrs.
Test [15] deals with Staphylococcus aureus. The test is described as follows: Antibacterial activity methicillin-resistant Staphylococcus aureus MRSA ST-1745 assessed as inhibition of bacterial growth incubated for 16 to 24 hrs by broth microdilution assay. The format is functional. To be noted: time 16-24 hrs.
The subject of test [16] is Staphylococcus aureus. The test is described as follows: Antibacterial activity methicillin-resistant Staphylococcus aureus MRSA ST-3151 assessed as inhibition of bacterial growth incubated for 16 to 24 hrs by broth microdilution assay. The format is functional. The note with it: time 16-24 hrs.
In test [17] the test system is Staphylococcus aureus. The test is described as follows: Antimicrobial activity against Staphylococcus aureus MTCC 1430 assessed as bacterial growth inhibition incubated for 24 hrs by broth micro dilution method. Type of test: functional.
The test system of test [18] is Bacillus subtilis. The test is described as follows: Antimicrobial activity against Bacillus subtilis MTCC 441 assessed as bacterial growth inhibition incubated for 24 hrs by broth micro dilution method. The format is functional.
The test system of test [19] is Pseudomonas aeruginosa. The test is described as follows: Antimicrobial activity against Pseudomonas aeruginosa MTCC 424 assessed as bacterial growth inhibition incubated for 24 hrs by broth micro dilution method. The format is functional.
A further test has as its system Escherichia coli. The test is described as follows: Antimicrobial activity against Escherichia coli MTCC 1573 assessed as bacterial growth inhibition incubated for 24 hrs by broth micro dilution method. The format is functional.
The test system of test [20] is Pseudomonas aeruginosa. The test is described as follows: Antibacterial activity Pseudomonas aeruginosa Ps12 assessed as inhibition of bacterial growth incubated for 24 hrs by microbroth dilution assay. The format is functional.
Another test deals with Klebsiella pneumoniae. The test is described as follows: Antibacterial activity Klebsiella pneumoniae K4 assessed as inhibition of bacterial growth incubated for 24 hrs by microbroth dilution assay. The format is functional.
The target of the next test is DNA. The test is described as follows: Binding affinity to DNA (unknown origin) assessed as DNA intercalation by measuring amount of methyl green dye replaced from DNA-methyl green complex after 24 hrs by colourimetric assay. Type of test: nucleic-acid assay.
Test [21] relates to Mycolicibacterium smegmatis. The test is described as follows: Antimycobacterial activity against Mycobacterium smegmatis ATCC 607 assessed as bacterial growth inhibition incubated for 48 hrs by resazurin dye based assay. The format is functional.
In test [22] the test system is Mycobacterium tuberculosis. The test is described as follows: Antimycobacterial activity against Mycobacterium tuberculosis H37Rv CNCTC My 331/88 assessed as bacterial growth inhibition incubated for 5 days by resazurin dye based assay. To be noted: H37Rv CNCTC My 331/88, 120 h, time 5 day. The format is functional. (In general: The colour change of resazurin is a common sign of viable cells or microbes.)

Another test relates to Mycobacterium kansasii. The test is described as follows: Antimycobacterial activity against Mycobacterium kansasii CNCTC My 235/80 assessed as bacterial growth inhibition incubated for 5 days by resazurin dye based assay. The format is functional. The note with it: CNCTC My 235/80, 120 h, time 5 day.

Values after ≈ are worked out from the molar mass of the structure shown.

By MIC is commonly meant the least concentration at which growth counts as inhibited. With `COc1cc(O)c(C(=O)/C=C/c2ccc(O)cc2)cc1CC=C(C)C`, the MIC (in test [1]; in the test with Bacillus subtilis [2]; with Micrococcus luteus) was 4 µg/mL (≈ 11.8 µM) throughout.
As to `O=C(/C=C/c1ccccc1O)c1cccs1`, the MIC in the test with Staphylococcus aureus [3] was found to be 32 µg/mL (≈ 139 µM); in the test with Staphylococcus aureus [4], 64 µg/mL (≈ 278 µM).
As to `O=C(/C=C/c1ccc(N2CCCCC2)cc1)c1ccc(O)cc1O`, the MIC with Staphylococcus aureus [5] and with Staphylococcus aureus [6] was 3.12 µg/mL (≈ 9.66 µM) throughout.
For the compound `COc1ccc(C(=O)/C=C/c2ccc(F)cc2)cc1`, the MIC with Bacillus anthracis turned out to be 12.5 µg/mL (≈ 48.8 µM).
With `COc1ccc(C(=O)/C=C/c2ccc(O)cc2)c(O)c1CC=C(C)C`, the MIC (in test [1]; in the test on Bacillus subtilis [2]; with Micrococcus luteus) was 2 µg/mL (≈ 5.91 µM) throughout.
Regarding `Cc1cc(C(=O)/C=C/c2ccc(Cl)cc2)ccc1O`, the MIC in the test with Bacillus anthracis amounted to 12.5 µg/mL (≈ 45.8 µM).
Consider `COc1ccc(/C=C/C(=O)c2ccc(O)c(C)c2)cc1Br`, for which the MIC in the test with Bacillus anthracis was determined as 1.56 µg/mL (≈ 4.49 µM).
Regarding `O=C(/C=C/c1c[nH]c2ccccc12)c1cccc(OCc2ccccc2)c1`, the MIC in the test with Staphylococcus aureus [7], in the test on Staphylococcus aureus [8], in the test with Staphylococcus aureus [9], in the test with Staphylococcus aureus [10], in the test with Staphylococcus aureus [11] and with Staphylococcus aureus [12] was 12.5 µg/mL (≈ 35.4 µM) throughout. Also, the MIC in the test on Staphylococcus aureus [13], in the test with Staphylococcus aureus [14], in the test on Staphylococcus aureus [15] and with Staphylococcus aureus [16] was 12.5 µg/mL (≈ 35.4 µM) in each case.
Regarding `CSc1ccc(/C=C/C(=O)c2nnn(-c3c(C)c(C(F)(F)F)cc(Cl)c3Cl)c2C)cc1`, the MIC in the test with Staphylococcus aureus [17] was found to be 6.25 µg/mL (≈ 12.9 µM); in the test on Bacillus subtilis [18] it was 3.12 µg/mL (≈ 6.42 µM); with Pseudomonas aeruginosa [19], 12.5 µg/mL (≈ 25.7 µM); in the test with Escherichia coli it was 3.12 µg/mL (≈ 6.42 µM).
With `COc1cc(C(CC(=O)c2ccc(C)cc2)SC(=S)N2CCOCC2)cc(OC)c1OC` (configuration not stated), the MIC in the test on Pseudomonas aeruginosa [20] and with Klebsiella pneumoniae was 8 µg/mL (≈ 16.8 µM) each time.
As a reminder, the IC50 is the midpoint of a concentration-inhibition curve. For the compound `COc1ccc(C(=O)CC(SC(=S)N2CCOCC2)c2ccc(OC)c(OC)c2)cc1` (configuration not stated), the IC50 on DNA came out at 27.48 µg/mL (≈ 59.5 µM). Also, the MIC with Pseudomonas aeruginosa [20] and in the test with Klebsiella pneumoniae was 32 µg/mL (≈ 69.3 µM) each time.
`CC(C)(C)c1cnc(C(=O)/C=C/c2ccccc2Cl)cn1`: the MIC stood at 3.9 µg/mL (≈ 13 µM) in test [21], 3.13 µg/mL (≈ 10.4 µM) in test [22] and 25 µg/mL (≈ 83.1 µM) with Mycobacterium kansasii.
In the case of `COc1cc(C(CC(=O)c2ccc(C)cc2)SC(=S)N2CCN(Cc3ccccc3)CC2)cc(OC)c1OC` (configuration not stated), on DNA, the IC50 is 30.97 µg/mL (≈ 54.8 µM). Also, the MIC in the test with Pseudomonas aeruginosa [20] was 32 µg/mL (≈ 56.7 µM); in the test with Klebsiella pneumoniae, 64 µg/mL (≈ 113 µM).
Consider `CC(C)(C)c1cnc(C(=O)/C=C/c2ccccc2F)cn1`, for which the results for the MIC (in [21]; in test [22]; in the test on Mycobacterium kansasii) were greater than 500 µg/mL, 6.25 µg/mL (≈ 22 µM) and 12.5 µg/mL (≈ 44 µM), respectively.
For `Cc1cc(C(=O)/C=C/c2ccc(N3CCCCC3)cc2)ccc1O`, the MIC in the test with Bacillus anthracis came to 1.56 µg/mL (≈ 4.85 µM).

The record behind these values is ChEMBL document CHEMBL5233215, “Recent developments of chalcones as potential antibacterial agents in medicinal chemistry” (Eur J Med Chem, 2020).
